This passage reports cytotoxicity results from ChEMBL document CHEMBL3507680, “University of Dundee, Gates Library screen for HepG2 cell viability”.

Molecules are shown by their SMILES.

This data set in a line: Human HepG2 cell viability assay in 384 well format. Format: toxicity, cell-based. Also noted: dose 125 nL, time 70.5 hour; concentration not given beside the values. The settings on record: HepG2 cells, read-out: Inhibition.

As to `CCn1nccc1CNC(=O)NC1CCCCC1`, the cytotoxicity at 70.5 h was found to be 6.27%.

Regarding `Cc1cc(=O)n(CC(=O)NCC2CCCO2)c(-c2cccc(Cl)c2)n1` (stereo not drawn), the cytotoxicity at 70.5 h is -2.89%.

For `Cc1cc(=O)n(CC(=O)NCCC(C)C)c(-c2cccc(Cl)c2)n1`, the cytotoxicity at 70.5 h was -1.79%.

`CN1CCCCC(C2CCN(S(=O)(=O)c3cn(C)cn3)CC2)C1=O` (stereo not drawn): the cytotoxicity at 70.5 h turned out to be 0.674%.

On to `O=C(c1ccnc(C2CCNCC2)c1)N1CCCC(CO)C1` (stereo not drawn), for which the cytotoxicity at 70.5 h was -2.32%.

Turning to `O=C1CCOC[C@]2(CN(Cc3ccccc3)C[C@H]2c2cccnc2)N1`, the cytotoxicity at 70.5 h is 15.4%.

In the case of `CC(C)N1CCOC(c2ccnc(N(C)C)n2)C1` (stereo not drawn), the cytotoxicity at 70.5 h was -3.86%.

In the case of `COCC(=O)NC(Cc1cc(N(C)C)nc(C2CC2)n1)c1ccccc1` (stereo not drawn), the cytotoxicity at 70.5 h is -2.08%.

Regarding `Cc1ccc(OCCCNC(=O)C2(C)CC(=O)N3C=CC=CC3=N2)cc1` (stereo not drawn), the cytotoxicity at 70.5 h is -3.61%.

For `NC(=O)CN1CCC(c2csc(Nc3cnccn3)n2)CC1`, the cytotoxicity at 70.5 h is -4.74%.

With `COCC(=O)NCc1ccc(-c2ccccc2C(=O)O)cn1`, the cytotoxicity at 70.5 h is -3.58%.

Consider `FC(F)(F)c1cc(C2CCCN(c3ncccn3)C2)n2ccnc2n1` (stereo not drawn), for which the cytotoxicity at 70.5 h was -2.5%.

Regarding `Cc1cc(C)nc(Nc2nccnc2C2CCCN(CCO)C2)n1` (stereo not drawn), the cytotoxicity at 70.5 h was -3.54%.

Regarding `Cc1ccccc1OC1CCN(CC(=O)Nc2c(C)nn(C)c2C)CC1`, the cytotoxicity at 70.5 h was 1.35%.

As to `Cc1nc(CCC(N)=O)cc(C2CCCN2S(C)(=O)=O)n1` (stereo not drawn), the cytotoxicity at 70.5 h turned out to be 0.687%.

On to `O=C(c1cc2cccc(F)c2[nH]1)N1C[C@@H](O)[C@H](N2CCOCC2)C1`, for which the cytotoxicity at 70.5 h was -5.87%.

On to `COCCNC(=O)CN1CC=C(n2c(C)nc(=O)c3ccccc32)CC1`, for which the cytotoxicity at 70.5 h amounted to 0.895%.

In the case of `O=C(c1ccc2c(c1)CCCC2)N1CCn2ncnc2C1`, the cytotoxicity at 70.5 h was 2.9%.

On to `Cc1nn(C)c(C)c1-c1cnc(CC2CCNC2)cn1` (stereo not drawn), for which the cytotoxicity at 70.5 h was -4.3%.

As for `Cc1cc(C)nc(Nc2nccnc2C2CCCN(C(C)C)C2)n1` (stereo not drawn), the cytotoxicity at 70.5 h stood at 1.6%.

Consider `CNc1cncc(C2CCN(C(=O)c3cnco3)CC2)n1`, for which the cytotoxicity at 70.5 h was determined as 9.47%.

Take `CCc1cc(C(=O)N2CCCC(c3cc(=O)nc4n3CCC4)C2)no1` (stereo not drawn): the cytotoxicity at 70.5 h was -6.36%.

`Cc1cc(C)n(CCNCc2cc(-c3ccc(Cl)cc3)c[nH]c2=O)n1`: the cytotoxicity at 70.5 h was -3.88%.

Regarding `Cc1ccc(-c2cc(N)c(=O)n(C(C)C(=O)NC(C)C)n2)o1` (stereo not drawn), the cytotoxicity at 70.5 h was -11.9%.

On to `Cc1cc2c(cc1C)OC1(C=C2)CCN(CC(=O)N2CCOCC2)CC1`, for which the cytotoxicity at 70.5 h is -8.77%.

For `Cc1sc(C(=O)NC(C)C)cc1S(=O)(=O)N(C)C`, the cytotoxicity at 70.5 h is -5.26%.

As for `COCCNC(=O)Cn1c(-c2ccco2)cc2cccnc21`, the cytotoxicity at 70.5 h was -8.41%.

Turning to `COCCNC(=O)C(C)n1nc(-c2ccco2)cc(N)c1=O` (stereo not drawn), the cytotoxicity at 70.5 h came to 23.7%.

On to `COCCCNC(=O)C(C)n1nc(-c2ccco2)cc(N)c1=O` (stereo not drawn), for which the cytotoxicity at 70.5 h was -6.27%.

On to `CCCNC(=O)C(C)n1nc(-c2ccc(C)o2)cc(N)c1=O` (stereo not drawn), for which the cytotoxicity at 70.5 h was -1.77%.

Turning to `CCC(=O)N1CCC(c2nc(N3CCOCC3)ncc2S(C)(=O)=O)CC1`, the cytotoxicity at 70.5 h is -9.6%.

As to `CC(C)(C)C(=O)N1CCC(c2noc(C3CCC(=O)N3)n2)CC1` (stereo not drawn), the cytotoxicity at 70.5 h is -6.7%.

For the compound `Cc1cc(Nc2nc(C)cc(C)n2)cc(C2CCCN2)n1` (stereo not drawn), the cytotoxicity at 70.5 h was -7.57%.

For the compound `CS(=O)(=O)N[C@@H]1CN(Cc2ccccc2)C[C@H]1O`, the cytotoxicity at 70.5 h is -5.89%.

As to `Cc1cc(N(C)C)nc(C2COCCN2Cc2cc(C)on2)n1` (stereo not drawn), the cytotoxicity at 70.5 h is -7.49%.

In the case of `Cc1noc(C)c1CC(=O)N1CCC(c2ccn3nccc3n2)CC1`, the cytotoxicity at 70.5 h worked out at 0.22%.

`Cc1cn[nH]c1C1COCCN1C(=O)c1ccc2c(c1)CCCC2` (stereo not drawn): the cytotoxicity at 70.5 h is -3.65%.

Consider `Cc1cc(NC2CC3(CCN(Cc4csc(C)n4)C3)C2)ncn1` (stereo not drawn), for which the cytotoxicity at 70.5 h is -9.59%.

For the compound `Cc1cc(N2CCCC(O)(CN(C)C(=O)CCN)C2)c2cnccc2n1` (stereo not drawn), the cytotoxicity at 70.5 h was determined as 26.9%.

As for `COc1ncc(CN2C[C@@H]3C[C@@H](O)CN3C[C@@H]2Cc2ccccc2)cn1`, the cytotoxicity at 70.5 h worked out at 18.8%.

For `CC(C)C(=O)N1CCCC(Cc2ccccn2)C1` (stereo not drawn), the cytotoxicity at 70.5 h was -1.35%.

With `Cc1noc(C)c1-c1nc(C2CCCN(CCC(N)=O)C2)ccc1CO` (stereo not drawn), the cytotoxicity at 70.5 h was -6.81%.

`CO[C@H]1CN(C(=O)c2cccc(C)n2)CC[C@@]12CCCO2`: the cytotoxicity at 70.5 h is -6.22%.

As to `CN(C)CC1(O)CCN(C(=O)Cc2ccc3ccccc3c2)C1` (stereo not drawn), the cytotoxicity at 70.5 h was -1.7%.

Take `Cc1nc(C)c(C(=O)N2CCc3nnc(C4CCCN4C)n3CC2)s1` (stereo not drawn): the cytotoxicity at 70.5 h was -3.4%.

Regarding `Cc1cccc(Nc2ccc(C3CCN(Cc4ncc[nH]4)CC3)nc2)n1`, the cytotoxicity at 70.5 h is 0.422%.

With `Cc1cnn(CC(=O)N2CCC(c3ccn4nccc4n3)CC2)c1`, the cytotoxicity at 70.5 h was -2.27%.

Turning to `CN(CC1(O)CCN(c2ccnc3ccncc23)CC1)C(=O)CCN`, the cytotoxicity at 70.5 h is -6.66%.

For `Cc1n[nH]c(C)c1-c1nccnc1CC1CCNC1` (stereo not drawn), the cytotoxicity at 70.5 h was -2.8%.

For `CC(=O)N1CCOC(c2ccnc(N(C)C)n2)C1` (stereo not drawn), the cytotoxicity at 70.5 h was determined as 1.91%.

`Cc1nccn1[C@@H]1CC[C@@H](NC(=O)Cn2c(C)nc3ccccc32)[C@H]1O`: the cytotoxicity at 70.5 h was found to be 0.7%.

In the case of `CN1CCC(Cc2cncc(-c3ccccc3C(=O)O)n2)C1` (stereo not drawn), the cytotoxicity at 70.5 h was -6.47%.

As for `O=C(Cn1ccnc1)N1C[C@@H]2CC[C@H](Oc3ccc(Cl)cc3)[C@@H]2C1`, the cytotoxicity at 70.5 h was found to be 0.299%.

Take `COc1ccc(CN(Cc2cn(C)nc2C)CC2CCCO2)c(OC)c1` (stereo not drawn): the cytotoxicity at 70.5 h is -2.41%.

On to `COCCN1C(=O)CO[C@H]2CN(Cc3cccc(OC)c3F)C[C@@H]21`, for which the cytotoxicity at 70.5 h was -4.24%.

On to `O=C(COc1cccc(F)c1)N1CCCCC1c1ccn2ccnc2n1` (stereo not drawn), for which the cytotoxicity at 70.5 h was -9.3%.

For `O=C(CCc1cccnc1)N1CCCCC1c1ccn2ccnc2n1` (stereo not drawn), the cytotoxicity at 70.5 h was -6.74%.

With `Cc1cncc(C(=O)N[C@@H]2CC[C@@H](N3CCOCC3)[C@@H]2O)c1`, the cytotoxicity at 70.5 h is -8.5%.

Take `COc1ccc(CN2CC[C@H](NC(C)=O)[C@@H](O)CC2)c(F)c1`: the cytotoxicity at 70.5 h is -5.93%.

For `CC(=O)N1CCCC1c1cccc(Cc2ccccc2Cl)n1` (stereo not drawn), the cytotoxicity at 70.5 h is 0.0226%.

Turning to `NC(=O)C1(CCCc2ccccn2)CCCN(CCO)C1` (stereo not drawn), the cytotoxicity at 70.5 h is -4.87%.

On to `CN(C)Cc1ccnc(C2CN(Cc3nccs3)CCO2)n1` (stereo not drawn), for which the cytotoxicity at 70.5 h was 1.69%.

For `CC(=O)N1CCCC1c1cccc(Oc2ccccc2F)n1` (stereo not drawn), the cytotoxicity at 70.5 h was -4.13%.

With `CN(C)Cc1ccnc(C2CN(Cc3c(F)cccc3F)CCO2)n1` (stereo not drawn), the cytotoxicity at 70.5 h was -6.34%.

On to `NC(=O)CN1CCCC(c2cncc(Nc3ncccn3)n2)C1` (stereo not drawn), for which the cytotoxicity at 70.5 h was -6.48%.

As for `O=C(COc1ccccc1F)N1CCCCC1c1ccn2ccnc2n1` (stereo not drawn), the cytotoxicity at 70.5 h is -11.7%.

For `CC(=O)NCC(=O)N1C[C@@H]2CC[C@H](Oc3ccccc3Cl)[C@@H]2C1`, the cytotoxicity at 70.5 h was found to be 12.5%.

With `CN(Cc1ccc(F)cc1)CC1(O)CCN(C(=O)c2ccn(C)n2)C1` (stereo not drawn), the cytotoxicity at 70.5 h was -6.54%.

As to `CC(=O)N1CCCC(c2ccnc(Nc3cnccn3)n2)C1` (stereo not drawn), the cytotoxicity at 70.5 h is -7.2%.

As for `Cc1nc(CCC(N)=O)cc(C2CCNCC2)n1`, the cytotoxicity at 70.5 h worked out at 18.8%.

As to `Fc1ccc(Cc2cccc(C3CCN(C4CCOCC4)CC3)n2)cc1`, the cytotoxicity at 70.5 h was 0.432%.

On to `Cc1noc2nc(C3CCN(Cc4ccccn4)CC3)cc(C(F)F)c12`, for which the cytotoxicity at 70.5 h was -2.48%.

As for `Oc1nc(N2CCOCC2)nc2c1CCN(Cc1cccc(F)c1)CC2`, the cytotoxicity at 70.5 h is -5.57%.

`CC(C)n1ccnc1CN1CCOC(C)(C(=O)N2CCOCC2)C1` (stereo not drawn): the cytotoxicity at 70.5 h was -5.02%.

For `NC(=O)C1(CCCc2ccccn2)CCCN(Cc2ccncc2)C1` (stereo not drawn), the cytotoxicity at 70.5 h was -2.02%.

As for `Oc1nc(N2CCOCC2)nc2c1CCN(Cc1ccc(F)cc1)CC2`, the cytotoxicity at 70.5 h was -2.02%.

For the compound `NC(=O)C1(CCCc2ccccn2)CCCN(Cc2ncc[nH]2)C1` (stereo not drawn), the cytotoxicity at 70.5 h turned out to be 1.81%.

As for `Cc1nc(NC2CCCC2)cc(C2CCN2C(=O)c2ccccn2)n1` (stereo not drawn), the cytotoxicity at 70.5 h is -4.92%.

As to `O=C(c1ccccc1F)N1CCOC(c2nc(-c3ncccn3)no2)C1` (stereo not drawn), the cytotoxicity at 70.5 h is -2.38%.

Regarding `Cc1ccc(C2CCCN(C(=O)c3cnn(C)c3)C2)nc1` (stereo not drawn), the cytotoxicity at 70.5 h came to 24.3%.

Take `CNC(=O)C1(c2cnccn2)CCCN1C(=O)c1ccccc1` (stereo not drawn): the cytotoxicity at 70.5 h was 17.8%.

With `O=C(c1cc(C2CCCCN2C(=O)C2CCC2)n[nH]1)N1CCOCC1` (stereo not drawn), the cytotoxicity at 70.5 h turned out to be 18.8%.

In the case of `CNC(=O)C1(c2cnccn2)CCCN1C(=O)c1cccc(F)c1` (stereo not drawn), the cytotoxicity at 70.5 h was 20.4%.

Take `O=C(c1cccnc1)N1CCOC(c2ccc(-c3cncnc3)cn2)C1` (stereo not drawn): the cytotoxicity at 70.5 h is -0.513%.

In the case of `Cc1nc(Nc2cnccn2)cc(C2CCCN2)n1` (stereo not drawn), the cytotoxicity at 70.5 h was 19.5%.

On to `COC(C)(C)C(=O)N1CCC(c2cc(CN(C)C)n(C)n2)CC1`, for which the cytotoxicity at 70.5 h is -10.8%.

For the compound `CN1CCCC(c2ccc(N3CCOCC3)cn2)C1` (stereo not drawn), the cytotoxicity at 70.5 h was -3.9%.

With `Cc1cc(C)n(CCCn2cncc2-c2ccc3c(c2)CC(C)N3C)n1` (stereo not drawn), the cytotoxicity at 70.5 h stood at 2%.

With `Cc1nn(C)c(C)c1CCn1cncc1-c1ccc2c(c1)CC(C)N2C` (stereo not drawn), the cytotoxicity at 70.5 h came out at 4.43%.

As for `CCN1c2ccc(-c3cncn3CCCn3ccnc3C)cc2CC1C` (stereo not drawn), the cytotoxicity at 70.5 h is -0.494%.

Consider `c1cc(CNc2cnc(C3CCCN3)cn2)ccn1` (stereo not drawn), for which the cytotoxicity at 70.5 h was -1.63%.

With `CN(CC(=O)NC(Cc1ccsc1)c1cccnc1)Cc1ccccn1` (stereo not drawn), the cytotoxicity at 70.5 h was determined as 31.3%.

For `Cc1c(CN2CCc3nc4sccc4c(=O)n3CC2)cnn1C`, the cytotoxicity at 70.5 h was -6.65%.

As for `COc1ccc(C(C)N(C)Cc2c(C3CC3)[nH]c3ncccc23)cc1` (stereo not drawn), the cytotoxicity at 70.5 h is -3.9%.

In the case of `O=C(c1ccnc(C2CCNCC2)c1)N1CCCOCC1`, the cytotoxicity at 70.5 h was -1.42%.

Turning to `Fc1ccc(Cc2cnc(C3CCCN3)cn2)cc1` (stereo not drawn), the cytotoxicity at 70.5 h was 16.8%.

Regarding `CC(C)NC(=O)C1(CC2CC(c3ccc(F)cc3)=NO2)CCNCC1` (stereo not drawn), the cytotoxicity at 70.5 h came out at 24.3%.

As to `Cc1ccccc1OC1CCN(CC(=O)Nc2ccn(C)n2)CC1`, the cytotoxicity at 70.5 h is -7.79%.
